# Measured values taken from US20140154317A1, “Pharmaceutical Composition for Treatment of Helicobacter Pylori Associated Diseases” (priority 2012, published 2014).
# Experiments:
# [1] = tested on: gram positive and gram negative, aerobic, and anaerobic bacteria; details: in vivo or in vitro; cited from earlier work
# [2] = cited from earlier work
# AGS cells = experiment: Matrigel transwell invasion assay with CXCL12, AGS; type: cell-based; details: 5 μm, cell line not given
# Protocol: (A) MDA-MB-231 (2×10^5 cells) were seeded in the top-chamber of the Matrigel. After pre-incubation with or without the composition according to Ex. 6 and its major active components (5 μm) for 6 h, transwell chambers were then placed into the wells of a 24-well plate, in which we had added either the basal medium only or basal medium containing 10 ng/ml CXCL12 for 24 h. After incubation, they were assessed for cell invasion. Columns indicate mean percentage of invaded cells; bars, S.E. *, […]. (B) AGS (2×10^5 cells) were seeded in the top-chamber of the Matrigel. […], transwell chambers were then placed into the wells of a 24-well plate, in […] After incubation, the chambers were assessed for cell invasion. Columns indicate mean percentage of invaded cells; bars, S.E. *, […]. Representative results of three independent experiments are shown. […] AGS cells were treated with 5 μm of the composition and its major active components for indicated times. Total RNA was isolated and analyzed by RT-PCR assay. […] Representative results of three independent experiments are shown. […] Cells were incubated with 5 μm of the active ingredients of the composition and its single major active components for indicated times. Whole-cell extracts were prepared and analyzed by Western blot analysis using antibodies against CXCR4. The same blots were stripped and reprobed with β-actin antibody to show equal protein loading. Representative results of three independent experiments are shown.
# CXCR4 [3] = experiment: CXCR4 protein expression, Western blot of whole-cell extracts of gastric cancer cells; type: cell-based; details: 5.0 μm, 6 h, line not given
# Protocol: Different tumor cell types, namely gastric cancer (AGS, MKN45, and SNU16) cells were incubated with different components of the composition as well as a combination according to the finished product for 6 h. Whole-cell extracts were prepared and analyzed by Western blot analysis using antibody against CXCR4. The same blots were stripped and reprobed with β-actin antibody to show equal protein loading. Representative results of three independent experiments are shown.
# The same experiment was carried out to find out whether the composition downregulates expression of CXCR4 in gastric (AGS, MKN45, and SNU16) cancer cell lines, which has never been investigated before. Cells were treated with 5 μm active ingredients of Ex. 6 and its major active components for 6 h before assessing the resultant effect on CXCR4 expression.
# (A) MDA-MB-231 (2×10^5 cells) were seeded in the top-chamber of the Matrigel. After pre-incubation with or without the composition according to Ex. 6 and its major active components (5 μm) for 6 h, transwell chambers were then placed into the wells of a 24-well plate, in which we had added either the basal medium only or basal medium containing 10 ng/ml CXCL12 for 24 h. After incubation, they were assessed for cell invasion. Columns indicate mean percentage of invaded cells; bars, S.E. *, […]. (B) AGS (2×10^5 cells) were seeded in the top-chamber of the Matrigel. After preincubation with or without the composition and its major active components (5 μm) for 6 h, transwell chambers were then placed into the wells of a 24-well plate, in which we had added either the basal medium only or basal medium containing […] CXCL12 for 24 h. After incubation, the chambers were assessed for cell invasion. Columns indicate mean percentage of invaded cells; bars, S.E. *, […]. Representative results of three independent experiments are shown. […] Total RNA was isolated and analyzed by RT-PCR assay. […] Whole-cell extracts were prepared and analyzed by Western blot analysis using antibodies against CXCR4. […]
# CXCR4 mRNA = CXCR4 mRNA expression by RT-PCR in AGS cells; type: cell-based; details: 5 μm
# Protocol: (A) MDA-MB-231 (2×10^5 cells) were seeded in the top-chamber of the Matrigel. After pre-incubation with or without the composition according to Ex. 6 and its major active components (5 μm) for 6 h, transwell chambers were then placed into the wells of a 24-well plate, in which we had added either the basal medium only or basal medium containing 10 ng/ml CXCL12 for 24 h. After incubation, they were assessed for cell invasion. Columns indicate mean percentage of invaded cells; bars, S.E. *, P>0.05. (B) AGS (2×10^5 cells) were seeded in the top-chamber of the Matrigel. After preincubation with or without the composition and its major active components (5 μm) for 6 h, transwell chambers were then placed into the wells of a 24-well plate, in which we had added either the basal medium only or basal medium containing 100 ng/ml CXCL12 for 24 h. After incubation, the chambers were assessed for cell invasion. Columns indicate mean percentage of invaded cells; bars, S.E. *, P>0.05. Representative results of three independent experiments are shown. […] AGS cells were treated with 5 μm of the composition and its major active components for indicated times. Total RNA was isolated and analyzed by RT-PCR assay. […] Representative results of three independent experiments are shown. […] Cells were incubated with 5 μm of the active ingredients of the composition and its single major active components for indicated times. Whole-cell extracts were prepared and analyzed by Western blot analysis using antibodies against CXCR4. The same blots were stripped and reprobed with β-actin antibody to show equal protein loading. Representative results of three independent experiments are shown.
# CXCR4 [4] = experiment: CXCR4 protein expression, Western blot of whole-cell extracts of gastric cancer cells; type: cell-based; details: 6 h, line not given
SMILES,Resistance (in words) [1],cumulative dose shown safe and well tolerated ([2]; cumulative doses) [g],systemic dose shown safe and well tolerated ([2]; systemic doses),Percentage of invade cells (AGS cells; time 0 hours) [%],Percentage of invade cells (AGS cells; time 2 hours) [%],Percentage of invade cells (AGS cells; time 6 hours) [%],Percentage of invade cells (AGS cells; time 8 hours) [%],Percentage of invade cells (AGS cells; time 12 hours) [%],Percentage of invade cells (AGS cells; time 24 hours) [%],Fold change (CXCR4 expression) (CXCR4 [3]),mRNA fold change (CXCR4) (CXCR4 mRNA; time 0 hours),mRNA fold change (CXCR4) (CXCR4 mRNA; time 2 hours),mRNA fold change (CXCR4) (CXCR4 mRNA; time 6 hours),mRNA fold change (CXCR4) (CXCR4 mRNA; time 8 hours),mRNA fold change (CXCR4) (CXCR4 mRNA; time 12 hours),mRNA fold change (CXCR4) (CXCR4 mRNA; time 24 hours),Fold change (CXCR4 expression) (CXCR4 [4]; 0.5 μm),Fold change (CXCR4 expression) (CXCR4 [4]; 1.0 μm),Fold change (CXCR4 expression) (CXCR4 [4]; 2.5 μm)
"O=S1(=O)CCN(CN2CCS(=O)(=O)NC2)CN1 [Taurolidine, [bis(1,1-dioxoperhydro-1,2,4-thiadiazinyl-4)]-methane]",has not been observed,≥ 300,exceeding 40 g/day,–,–,–,–,–,–,–,–,–,–,–,–,–,–,–,–
"CCS(=O)(=O)CCn1c([N+](=O)[O-])cnc1C [TND, tinidazole]",–,–,–,85.23 ± 11.51,81.10 ± 14.20,72.55 ± 8.10,64.65 ± 10.11,51.33 ± 8.20,42.25 ± 8.55,0.53 ± 0.03,0.94 ± 0.02,0.83 ± 0.01,0.79 ± 0.04,0.65 ± 0.03,0.51 ± 0.03,0.39 ± 0.03,1.4 ± 0.01,0.98 ± 0.01,0.85 ± 0.01
"CC[C@H]1OC(=O)[C@H](C)[C@@H](O[C@H]2C[C@@](C)(OC)[C@@H](O)[C@H](C)O2)[C@H](C)[C@@H](O[C@@H]2O[C@H](C)C[C@H](N(C)C)[C@H]2O)[C@](C)(OC)C[C@@H](C)C(=O)[C@H](C)[C@@H](O)[C@]1(C)O [CLR, clarithromycin]",–,–,–,85.23 ± 11.51,80.22 ± 10.25,77.26 ± 9.14,62.27 ± 6.50,55.20 ± 7.10,48.20 ± 6.15,0.44 ± 0.01,0.90 ± 0.05,0.78 ± 0.02,0.63 ± 0.03,0.50 ± 0.03,0.42 ± 0.03,0.37 ± 0.03,1.3 ± 0.01,0.97 ± 0.01,0.79 ± 0.04
"COc1ccc2[nH]c([S+]([O-])Cc3ncc(C)c(OC)c3C)nc2c1 (stereo not drawn) [PPI, Omeprazol]",–,–,–,85.23 ± 11.51,82.10 ± 15.10,74.11 ± 6.25,60.12 ± 11.50,49.25 ± 7.26,39.25 ± 4.15,0.46 ± 0.02,0.92 ± 0.02,0.88 ± 0.021,0.67 ± 0.06,0.54 ± 0.04,0.41 ± 0.04,0.38 ± 0.04,1.4 ± 0.02,0.96 ± 0.03,0.81 ± 0.05
